According to PubChem BioAssay AID200 (DTP/NCI, 2004):
Where “and” joins values, the source holds several entries; their conditions need not be identical. Identical values can stand only once. Inconclusive results and toxic doses are left out. Where a SMILES comes first, the peptide text is derived from it. [ ]: non-standard residue; d: D form. The star is where a group is joined. Cbz = O=C(OCc1ccccc1)*; Nva = CCC[CH](N)C(=O)O

System: B6C3F1 mice, B16 melanoma ip, median survival T/C
Test: NCI In Vivo Anticancer Drug Screen. Data for tumor model B16 Melanoma (intraperitoneal) in B6C3F1 mice
Conditions: endpoint: median survival time, schedule: Q01DX009 (ip), higher = longer survival
Outline: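 Tumor-bearing mice received test compound; a separate group got vehicle only. Survival was then compared, with results reported as treated over control.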

[1] = dose: 100.0 mg/kg/injection, vehicle: Klucel (hydroxypropylcellulose) (HPC)
[2] = dose: 200.0 mg/kg/injection, vehicle: Klucel (hydroxypropylcellulose) (HPC)
[3] = dose: 6.25 mg/kg/injection, vehicle: Klucel (hydroxypropylcellulose) (HPC)
[4] = dose: 12.5 mg/kg/injection, vehicle: Klucel (hydroxypropylcellulose) (HPC)
[5] = dose: 25.0 mg/kg/injection, vehicle: Klucel (hydroxypropylcellulose) (HPC)
[6] = dose: 50.0 mg/kg/injection, vehicle: Klucel (hydroxypropylcellulose) (HPC)
[7] = dose: 25.0 mg/kg/injection, vehicle: saline with Tween-80
[8] = dose: 50.0 mg/kg/injection, vehicle: saline with Tween-80
[9] = dose: 100.0 mg/kg/injection, vehicle: saline with Tween-80
[10] = dose: 200.0 mg/kg/injection, vehicle: saline with Tween-80
[11] = dose: 12.5 mg/kg/injection, vehicle: saline
[12] = dose: 25.0 mg/kg/injection, vehicle: saline
[13] = dose: 50.0 mg/kg/injection, vehicle: saline
[14] = dose: 100.0 mg/kg/injection, vehicle: saline
[15] = dose: 200.0 mg/kg/injection, vehicle: saline
[16] = dose: 400.0 mg/kg/injection, vehicle: saline
[17] = dose: 400.0 mg/kg/injection, vehicle: Klucel (hydroxypropylcellulose) (HPC)

CCCCNC(C)C1(O)Cc2c(O)c3c(c(O)c2C(OC2CC(N)C(O)C(C)O2)C1)C(=O)c1c(OC)cccc1C3=O (stereo unspecified)
T/C (dose: 5.0 mg/kg/injection, vehicle: saline): 120 % of control | T/C (dose: 10.0 mg/kg/injection, vehicle: saline): 174 % of control and 193 % of control | T/C (dose: 20.0 mg/kg/injection, vehicle: saline): 160 % of control and 222 % of control | T/C (dose: 40.0 mg/kg/injection, vehicle: saline): 190 % of control and 333 % of control | T/C (dose: 80.0 mg/kg/injection, vehicle: saline): 232 % of control and 333 % of control

CCCC(NC(=O)OCc1ccccc1)C(=O)NC(C(=O)O)C(C)CC (stereo unspecified) (Cbz-[Nva]-Ile-OH; configuration not given here)
T/C [1]: 101 % of control | T/C [2]: 109 % of control

CN(C)N=Nc1ccc2c(c1)N(C)c1ccc(F)cc1S2
T/C (dose: 6.25 mg/kg/injection, vehicle: other): 106 % of control | T/C (dose: 12.5 mg/kg/injection, vehicle: other): 113 % of control | T/C (dose: 25.0 mg/kg/injection, vehicle: other): 115 % of control | T/C (dose: 50.0 mg/kg/injection, vehicle: other): 120 % of control | T/C (dose: 100.0 mg/kg/injection, vehicle: other): 117 % of control

CC(C)CC(=O)NC(C(=O)NC(C(=O)NC(CC(C)C)C(O)CC(=O)NC(C)C(=O)NC(CC(C)C)C(O)CC(=O)O)C(C)C)C(C)C (stereo unspecified)
T/C [3]: 102 % of control | T/C [4]: 93 % of control | T/C [5]: 96 % of control | T/C [6]: 88 % of control

Cc1ccccc1N=C(c1ccccc1)C1C(=O)c2ccccc2C1=O
T/C (dose: 50.0 mg/kg/injection, vehicle: DMSO): 101 % of control | T/C (dose: 100.0 mg/kg/injection, vehicle: DMSO): 106 % of control | T/C (dose: 200.0 mg/kg/injection, vehicle: DMSO): 116 % of control | T/C (dose: 400.0 mg/kg/injection, vehicle: DMSO): 108 % of control | T/C (dose: 800.0 mg/kg/injection, vehicle: DMSO): 101 % of control

CCCCOCN(COCCCC)C12CC3CC(CC(C3)C1)C2
T/C (dose: 12.5 mg/kg/injection, vehicle: saline with Tween-80): 108 % of control and 107 % of control | T/C [7]: 104 % of control and 105 % of control | T/C [8]: 109 % of control and 100 % of control | T/C [9]: 104 % of control and 106 % of control | T/C [10]: 105 % of control

O=C/C=C/c1cccc([N+](=O)[O-])c1
T/C [7]: 107 % of control | T/C [8]: 116 % of control | T/C [9]: 118 % of control | T/C [10]: 124 % of control

O=c1cc(-c2ccc3ccccc3n2)oc2ccc(Cl)cc12
T/C (dose: 10.0 mg/kg/injection, vehicle: saline with Tween-80): 99 % of control | T/C (dose: 20.0 mg/kg/injection, vehicle: saline with Tween-80): 101 % of control | T/C (dose: 40.0 mg/kg/injection, vehicle: saline with Tween-80): 95 % of control

O=S(=O)(c1cccc(N=C=S)c1)c1cccc(N=C=S)c1
T/C [3]: 109 % of control | T/C [4]: 94 % of control

CN(C)CCN1C(=O)c2cccc3cc(N)cc(c23)C1=O
T/C (dose: 1.0 mg/kg/injection, vehicle: saline with Tween-80): 113 % of control and 102 % of control | T/C (dose: 2.0 mg/kg/injection, vehicle: acid diluted with saline): 97 % of control | T/C (dose: 2.0 mg/kg/injection, vehicle: saline with Tween-80): 101 % of control and 102 % of control | T/C (dose: 4.0 mg/kg/injection, vehicle: acid diluted with saline): 106 % of control | T/C (dose: 4.0 mg/kg/injection, vehicle: saline with Tween-80): 112 % of control and 113 % of control and 120 % of control | T/C (dose: 8.0 mg/kg/injection, vehicle: acid diluted with saline): 111 % of control | T/C (dose: 8.0 mg/kg/injection, vehicle: saline with Tween-80): 116 % of control and 118 % of control and 120 % of control | T/C (dose: 16.0 mg/kg/injection, vehicle: acid diluted with saline): 110 % of control | T/C (dose: 16.0 mg/kg/injection, vehicle: saline with Tween-80): 87 % of control

CC(C)C(N)C(=O)Nc1nncs1 (stereo unspecified)
T/C [11]: 102 % of control | T/C [12]: 104 % of control | T/C [13]: 98 % of control | T/C [14]: 113 % of control | T/C [15]: 114 % of control | T/C [16]: 117 % of control

Cc1c(C)c2c(c(C)c1OC(=O)CCC(=O)O)CCC(C)(CCCC(C)CCCC(C)CCCC(C)C)O2 (stereo unspecified)
T/C (dose: 25.0 mg/kg/injection, vehicle: distilled water + Tween-80 + alcohol): 96 % of control | T/C (dose: 50.0 mg/kg/injection, vehicle: distilled water + Tween-80 + alcohol): 112 % of control | T/C (dose: 100.0 mg/kg/injection, vehicle: distilled water + Tween-80 + alcohol): 114 % of control | T/C (dose: 200.0 mg/kg/injection, vehicle: distilled water + Tween-80 + alcohol): 86 % of control

NC(N)=NS(=O)(=O)c1ccc(NCc2c3ccccc3nc3ccccc23)cc1
T/C [5]: 159 % of control | T/C [6]: 184 % of control | T/C [1]: 213 % of control | T/C [2]: 238 % of control | T/C [17]: 238 % of control | T/C (dose: 800.0 mg/kg/injection, vehicle: Klucel (hydroxypropylcellulose) (HPC)): 250 % of control

CCCC(NC(=O)OCc1ccccc1)C(=O)NC(Cc1c[nH]c2ccccc12)C(=O)O (stereo unspecified)
T/C [1]: 107 % of control | T/C [2]: 99 % of control | T/C [17]: 100 % of control

CN(C)[C@@H]1C(=O)C(C(N)=O)=C(O)[C@@]2(O)C(=O)C3=C(O)c4c(O)ccc(Cl)c4[C@@](C)(O)[C@H]3C[C@@H]12
T/C [11]: 97 % of control | T/C (dose: 12.5 mg/kg/injection, vehicle: water): 109 % of control | T/C [12]: 97 % of control | T/C (dose: 25.0 mg/kg/injection, vehicle: water): 105 % of control | T/C [13]: 101 % of control | T/C (dose: 50.0 mg/kg/injection, vehicle: water): 104 % of control | T/C [14]: 94 % of control | T/C (dose: 100.0 mg/kg/injection, vehicle: water): 100 % of control | T/C [15]: 98 % of control | T/C (dose: 200.0 mg/kg/injection, vehicle: water): 106 % of control

Cn1cc(C2NC(=O)c3ccccc3N2)c2ccccc21 (stereo unspecified)
T/C [5]: 109 % of control and 96 % of control | T/C [6]: 115 % of control and 106 % of control | T/C [1]: 123 % of control

CCOc1ccc(C(C)c2cc3c(cc2OC)OCO3)cc1 (stereo unspecified)
T/C (dose: 25.0 mg/kg/injection, vehicle: distilled water + Tween-80): 123 % of control | T/C (dose: 50.0 mg/kg/injection, vehicle: distilled water + Tween-80): 107 % of control

C[C@H](N)C(=O)N[C@@H]1[C@H]2C(=C(O)C[C@@H](O)[C@@H]2O)C(=O)O[C@@H]1C
T/C [13]: 101 % of control | T/C (dose: 75.0 mg/kg/injection, vehicle: saline with Tween-80): 111 % of control | T/C [14]: 98 % of control | T/C (dose: 150.0 mg/kg/injection, vehicle: saline with Tween-80): 120 % of control | T/C [15]: 111 % of control | T/C (dose: 300.0 mg/kg/injection, vehicle: saline with Tween-80): 117 % of control | T/C [16]: 103 % of control | T/C (dose: 1200.0 mg/kg/injection, vehicle: saline with Tween-80): 113 % of control
